What was measured:
mSiglec-1 [1] = target: T1, mSiglec-1 (Mus musculus, UniProt Q62230); assay: direct ESI native mass spectrometry titration; assay type: binding
T1 construct: gene Siglec1; monomeric Siglec-1 fragment from CHO Lec1 cells

hSiglec-1 = target: T2, hSiglec-1 (Homo sapiens, UniProt Q9BZZ2); assay: direct ESI native mass spectrometry titration; assay type: binding
T2 construct: gene SIGLEC1; monomeric Siglec-1 fragment from CHO Lec1 cells

mSiglec-1 [2] = target: T1, mSiglec-1; assay: direct ESI native mass spectrometry titration (no binding in liposome bead assay or ELISA)

T1 sequence (Q62230 20-136 limits assumed): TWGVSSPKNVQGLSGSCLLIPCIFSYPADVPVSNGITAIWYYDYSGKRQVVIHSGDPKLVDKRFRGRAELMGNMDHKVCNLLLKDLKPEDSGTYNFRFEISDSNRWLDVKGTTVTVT
T2 sequence (Q9BZZ2 20-136 limits assumed): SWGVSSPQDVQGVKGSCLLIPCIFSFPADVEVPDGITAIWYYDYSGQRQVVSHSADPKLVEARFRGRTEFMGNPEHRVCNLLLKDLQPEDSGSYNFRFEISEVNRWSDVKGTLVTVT

Kd (mSiglec-1 [1])	Kd (hSiglec-1)	Kd (mSiglec-1 [2])	Substance
1200 µM	890 µM	–	GM1b oligosaccharide
–	1500 µM	2000 µM	GM1a oligosaccharide
